Molecular target: protein:farnesyltransferase (Oryctolagus cuniculus, UniProt G1SFC8+G1T7D9)
Experiment: Inhibition of protein:farnesyl transferase activity in rabbit reticulocyte lysate (Sepharose-bound peptide, 3H-FPP)
Format: biochemical
Conditions: 80 pmol of pepAsep and pepBsep/5 µl beads, 0.7 µM ³H-FPP, 30 min at 37°C, read-out: IC₅₀-value
Procedure: Commercially available rabbit reticulocyte lysate contains enzymes necessary for protein-isoprenylation, such as protein:farnesyl transferase activity (Vorburger, K., Kitten, G.T. and Nigg, E.G., EMBO J. 8 (1989) 4007-4013) and protein:geranylgeranyl transferase (Maltese, W.A. and Robishaw, J.D., J. Biol. Chem. 265 (1990) 18071-18074). Using pepAsep (example I) as substrate and pepBsep (example I) as control the assay of protein:farnesyl transferase activity was performed as follows: In 25 µl of a mixture containing 5 µl of pepAsep or pepBsep (both containing an equal quantity of peptide), 13 µl rabbit reticulocyte lysate (Promega), 0.5 mM MgCl₂, 1 mM DTT, 50 mM Tris-HCl (pH 7.4) and [³H]-farnesyl pyrophosphate (³H-FPP; concentration as indicated in the figures; specific radioactivity 15 Ci/mmol; ARC, USA) the incubation was performed at 37°C for 30 min with continuous shaking. […] The radioactivity bound to the Sepharose was measured in a Packard Tricarb liquid scintillation counter. […]
80 pmol of pepAsep and pepBsep/5 µl Sepharose were incubated for 30 minutes in the presence of 0.7 µM of [³H]-FPP and the indicated concentrations of the farnesyl pyrophosphate analogues FPPA1 and FPPA2 as mentioned in Example IV. The farnesylation activity was calculated as ³H-dpm bound to pepAsep minus the pepBsep-bound-dpm and expressed as percentage of control (without inhibitor). […]

CC(C)=CCC/C(C)=C/CC/C(C)=C/COCP(=O)(O)CP(=O)(O)O [FPPA1, (E,E) -[Hydroxy-(3,7,11-trimethyl-2,6,10-dodecatrienyloxymethylphosphinyl)methyl]phosphonic acid]
IC50: 5260 ± 1100 nM

CC(C)=CCCC(C)=CCCC(C)=CCP(=O)(O)OP(=O)(O)O [FPPA2, farnesyl phosphonophosphate]
IC50: 290 ± 20 nM
